Test results taken from patent US11026877B2, “Cosmetic compositions for bleaching the skin” (Henkel AG & Co. KGaA, priority 2014, dated 2021).

Key:
Format in all cases: cell-based, human
Design in all cases: key: + stands for increased expression; − for reduced expression; 0 for no change
Settings in all cases: topical, 24 hours, 30 μL, in water with 3% by weight PEG-40 Hydrogenated Castor Oil; in comparison with the blank control
ckit = test: Gene expression by quantitative real-time PCR in reconstructed melanocyte models type VI (Skinethic): ckit
Experimental: (§1) The effect of licorice extract (oil-soluble) and ascorbyl tetraisopalmitate on the expression of melanogenesis-relevant genes was studied in reconstructed melanocyte models type VI from the company Skinethic. In this case, human keratinocytes were cultured together with type VI melanocytes, so that a very dark skin model forms. Together the cells form a three-dimensional epithelial tissue. Three models each were treated topically for 24 hours with 30 μL of the test formulations. In this case, the formulation is first applied to the model and then carefully distributed with a brush. Incubation then occurs at 37° C. with 5% CO2. Untreated models and models treated with a blank control (3% PEG-40 Hydrogenated Castor Oil in water) were run concurrently as the control. The gene expressions of the melanocyte-specific markers were studied using quantitative real-time PCR. […] In the subsequent PCR reaction, which is carried out with the aid of gene-specific primers for the particular markers and is used for the amplification of the target gene segments, the formation of the PCR products is detected online via a fluorescence signal. The fluorescence signal in this case is proportional to the amount of the formed PCR product. The greater the expression of a specific gene, the greater the amount of the formed PCR product and the greater the fluorescence signal. […]

gp100 = test: Gene expression by quantitative real-time PCR in reconstructed melanocyte models type VI (Skinethic): gp100
Experimental: as §1

TRP1 = test: Gene expression by quantitative real-time PCR in reconstructed melanocyte models type VI (Skinethic): TRP1
Experimental: as §1

TRP2 = test: Gene expression by quantitative real-time PCR in reconstructed melanocyte models type VI (Skinethic): TRP2
Experimental: as §1

Tyrosinase = test: Gene expression by quantitative real-time PCR in reconstructed melanocyte models type VI (Skinethic): Tyr
Experimental: as §1

Tyr gene expression (Tyrosinase): +
SMILES: CCCCCCCCC(CCCCCC)C(=O)OC[C@H](OC(=O)C(CCCCCC)CCCCCCCC)[C@H]1OC(=O)C(OC(=O)C(CCCCCC)CCCCCCCC)=C1OC(=O)C(CCCCCC)CCCCCCCC (some centres unmarked) [0.05% Vitamin tetraisopalmitate, ascorbyl tetraisopalmitate]
ckit gene expression (ckit): 0 | Gp100 gene expression (gp100): − | TRP1 gene expression (TRP1): − | TRP2 gene expression (TRP2): +
